Source: PubChem BioAssay AID256 (DTP/NCI, 2004)
Values joined by “and” are separate entries in the source; they are usually repeats but may differ in a detail not shown here. Identical values can stand only once. Toxic doses and inconclusive results are not listed. How the source made its calls: active means survival T/C of 150% or more; inactive means T/C below 125% in these data.

System: CD2F1 mice, L1210 leukemia ip, survival T/C
Experiment: NCI In Vivo Anticancer Drug Screen. Data for tumor model L1210 Leukemia (intraperitoneal) in CD2F1 (CDF1) mice
Settings: higher = longer survival
Outline: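 Read-out first: treated-group measurement over vehicle-control measurement, expressed as a ratio. Animals bore a transplanted tumor line and were dosed with compound or vehicle.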

[1] = endpoint: mean survival time, dose: 100.0 mg/kg/injection, schedule: Q04DX003 (ip), vehicle: saline with Tween-80
[2] = endpoint: mean survival time, dose: 200.0 mg/kg/injection, schedule: Q04DX003 (ip), vehicle: saline with Tween-80
[3] = endpoint: mean survival time, dose: 400.0 mg/kg/injection, schedule: Q04DX003 (ip), vehicle: saline with Tween-80
[4] = endpoint: mean survival time, dose: 100.0 mg/kg/injection, schedule: Q01DX001 (ip), vehicle: saline
[5] = endpoint: mean survival time, dose: 100.0 mg/kg/injection, schedule: Q01DX009 (ip), vehicle: saline with Tween-80
[6] = endpoint: mean survival time, dose: 200.0 mg/kg/injection, schedule: Q01DX009 (ip), vehicle: saline with Tween-80
[7] = endpoint: mean survival time, dose: 400.0 mg/kg/injection, schedule: Q01DX009 (ip), vehicle: saline with Tween-80
[8] = endpoint: mean survival time, dose: 100.0 mg/kg/injection, schedule: Q01DX001 (ip), vehicle: saline with Tween-80
[9] = endpoint: mean survival time, dose: 200.0 mg/kg/injection, schedule: Q01DX001 (ip), vehicle: saline with Tween-80

Measured: T/C

C[C@]12C[C@H](O)[C@H]3[C@@H](CCC4=CC(=O)CC[C@@]43C)[C@@H]1CC[C@@H]2C(=O)CO
inactive: endpoint: median survival time, dose: 25.0 mg/kg/injection, schedule: Q01DX009 (sc), vehicle: steriod suspending solution 100 % of control | endpoint: median survival time, dose: 50.0 mg/kg/injection, schedule: Q01DX009 (sc), vehicle: steriod suspending solution 100 % of control | endpoint: median survival time, dose: 100.0 mg/kg/injection, schedule: Q01DX009 (sc), vehicle: steriod suspending solution 100 % of control | endpoint: median survival time, dose: 200.0 mg/kg/injection, schedule: Q01DX009 (sc), vehicle: steriod suspending solution 100 % of control

COc1ccc(C2=Nc3cccc4c3N(CCC4)C2c2ccc(OC)cc2)cc1 (centres undefined)
inactive: endpoint: mean survival time, dose: 100.0 mg/kg/injection, schedule: Q04DX003 (ip), vehicle: other 96 % of control | endpoint: mean survival time, dose: 200.0 mg/kg/injection, schedule: Q04DX003 (ip), vehicle: other 96 % of control | endpoint: mean survival time, dose: 400.0 mg/kg/injection, schedule: Q04DX003 (ip), vehicle: other 94 % of control

O=C(C1=CN(CCCO)CCC1)c1cc2ccccc2n1S(=O)(=O)c1ccccc1
inactive: [1] 104 % of control | [2] 90 % of control | [3] 97 % of control

O=C(O)C1CCCC[N-]1.[Cl][Pd][Cl] (centres undefined)
inactive: endpoint: mean survival time, dose: 12.5 mg/kg/injection, schedule: Q01DX001 (ip), vehicle: saline 95 % of control | endpoint: mean survival time, dose: 25.0 mg/kg/injection, schedule: Q01DX001 (ip), vehicle: saline 108 % of control | endpoint: mean survival time, dose: 50.0 mg/kg/injection, schedule: Q01DX001 (ip), vehicle: saline 98 % of control | [4] 104 % of control | endpoint: mean survival time, dose: 200.0 mg/kg/injection, schedule: Q01DX001 (ip), vehicle: saline 109 % of control

O=C(/C(=C/c1ccccc1)CN1CCOCC1)c1ccccc1
inactive: endpoint: mean survival time, dose: 25.0 mg/kg/injection, schedule: Q01DX009 (ip), vehicle: Klucel (hydroxypropylcellulose) (HPC) 101 % of control | endpoint: mean survival time, dose: 50.0 mg/kg/injection, schedule: Q01DX009 (ip), vehicle: Klucel (hydroxypropylcellulose) (HPC) 105 % of control | endpoint: mean survival time, dose: 100.0 mg/kg/injection, schedule: Q01DX009 (ip), vehicle: Klucel (hydroxypropylcellulose) (HPC) 91 % of control

Cc1ccc(C(C)C)c(OCCCBr)c1
inactive: endpoint: mean survival time, dose: 25.0 mg/kg/injection, schedule: Q04DX003 (ip), vehicle: saline with Tween-80 101 % of control | endpoint: mean survival time, dose: 50.0 mg/kg/injection, schedule: Q04DX003 (ip), vehicle: saline with Tween-80 95 % of control | [1] 94 % of control and 95 % of control

CCOC(=O)C1(C(=O)OCC)C(C)CC(O)N1C(=O)c1ccccc1[N+](=O)[O-] (centres undefined)
inactive: endpoint: mean survival time, dose: 100.0 mg/kg/injection, schedule: Q01DX001 (ip), vehicle: Klucel (hydroxypropylcellulose) (HPC) 100 % of control | endpoint: mean survival time, dose: 200.0 mg/kg/injection, schedule: Q01DX001 (ip), vehicle: Klucel (hydroxypropylcellulose) (HPC) 96 % of control | endpoint: mean survival time, dose: 400.0 mg/kg/injection, schedule: Q01DX001 (ip), vehicle: Klucel (hydroxypropylcellulose) (HPC) 104 % of control

Cc1ccc(S(=O)(=O)OCC(O)C(O)C(O)C(O)C=O)cc1 (centres undefined) (tested in a mixture with another compound)
inactive: [5] 103 % of control | [6] 95 % of control | [7] 112 % of control

CC(=O)OCC(OC(C)=O)C1OC(OCc2ccccc2)C(OC(C)=O)C(OC(C)=O)C1OC(C)=O (centres undefined)
inactive: [8] 95 % of control | [9] 86 % of control | endpoint: mean survival time, dose: 400.0 mg/kg/injection, schedule: Q01DX001 (ip), vehicle: saline with Tween-80 88 % of control

Nc1ncnc2c1ncn2C1CC(O)C(CO)O1 (centres undefined)
inactive: endpoint: mean survival time, dose: 600.0 mg/kg/injection, schedule: Q03HX024 (ip), vehicle: saline with Tween-80 97 % of control | endpoint: mean survival time, dose: 900.0 mg/kg/injection, schedule: Q03HX024 (ip), vehicle: saline with Tween-80 103 % of control

C=C(C)C1(Cc2ccccc2)C(=O)NC(=O)NC1=O
inactive: endpoint: mean survival time, dose: 5.0 mg/kg/injection, schedule: Q01DX001 (ip), vehicle: saline 100 % of control | endpoint: mean survival time, dose: 10.0 mg/kg/injection, schedule: Q01DX001 (ip), vehicle: saline 97 % of control | endpoint: mean survival time, dose: 20.0 mg/kg/injection, schedule: Q01DX001 (ip), vehicle: saline 100 % of control | endpoint: mean survival time, dose: 40.0 mg/kg/injection, schedule: Q01DX001 (ip), vehicle: saline 102 % of control

CCOc1ccc([NH-])c([NH-])c1.[Cl][Pt+2][Cl]
inactive: endpoint: mean survival time, dose: 2.5 mg/kg/injection, schedule: Q01DX009 (ip), vehicle: distilled water + Tween-80 100 % of control | endpoint: mean survival time, dose: 5.0 mg/kg/injection, schedule: Q01DX009 (ip), vehicle: distilled water + Tween-80 107 % of control | endpoint: mean survival time, dose: 10.0 mg/kg/injection, schedule: Q01DX009 (ip), vehicle: distilled water + Tween-80 91 % of control

O=C1C2C(C(=O)N1c1ccc(OCc3ccccc3)cc1)C1c3ccccc3C2C2CCCCN21 (centres undefined)
inactive: endpoint: mean survival time, dose: 25.0 mg/kg/injection, schedule: Q01DX009 (ip), vehicle: water 100 % of control | endpoint: mean survival time, dose: 50.0 mg/kg/injection, schedule: Q01DX009 (ip), vehicle: water 86 % of control

[Cl][Sn]([c]1ccccc1)([c]1ccccc1)[c]1ccccc1
inactive: endpoint: mean survival time, dose: 2.5 mg/kg/injection, schedule: Q04DX003 (ip), vehicle: saline 91 % of control | endpoint: mean survival time, dose: 5.0 mg/kg/injection, schedule: Q04DX003 (ip), vehicle: saline 100 % of control | endpoint: mean survival time, dose: 10.0 mg/kg/injection, schedule: Q04DX003 (ip), vehicle: saline with Tween-80 97 % of control | endpoint: mean survival time, dose: 10.0 mg/kg/injection, schedule: Q04DX003 (ip), vehicle: saline 96 % of control

O=P(Oc1ccccc1)(Oc1ccccc1)C(Nc1ccccc1)c1cccnc1 (centres undefined)
inactive: endpoint: mean survival time, dose: 50.0 mg/kg/injection, schedule: Q01DX009 (ip), vehicle: saline with Tween-80 102 % of control | [5] 97 % of control | [6] 94 % of control

Nc1ccccc1CO
inactive: [1] 100 % of control | [2] 95 % of control | [3] 95 % of control

CCn1c(=O)c2nc(Br)n(C3OCC(OC(C)=O)C(OC(C)=O)C3OC(C)=O)c2n(CC)c1=O (centres undefined)
inactive: endpoint: mean survival time, dose: 12.5 mg/kg/injection, schedule: Q01DX005 (ip), vehicle: distilled water + Tween-80 104 % of control | endpoint: mean survival time, dose: 25.0 mg/kg/injection, schedule: Q01DX005 (ip), vehicle: distilled water + Tween-80 104 % of control | endpoint: mean survival time, dose: 50.0 mg/kg/injection, schedule: Q01DX005 (ip), vehicle: distilled water + Tween-80 100 % of control | endpoint: mean survival time, dose: 100.0 mg/kg/injection, schedule: Q01DX005 (ip), vehicle: distilled water + Tween-80 93 % of control | endpoint: mean survival time, dose: 200.0 mg/kg/injection, schedule: Q01DX005 (ip), vehicle: distilled water + Tween-80 88 % of control

CC(O)CNc1nc(N)[nH]c(=O)c1[N+](=O)[O-] (centres undefined)
inactive: [8] 94 % of control | [9] 89 % of control

CCCCOC(=O)c1ccccc1C(=O)O.[Cu+2]
inactive: endpoint: mean survival time, dose: 6.25 mg/kg/injection, schedule: Q01DX001 (ip), vehicle: saline with Tween-80 100 % of control | endpoint: mean survival time, dose: 12.5 mg/kg/injection, schedule: Q01DX001 (ip), vehicle: saline with Tween-80 96 % of control | endpoint: mean survival time, dose: 25.0 mg/kg/injection, schedule: Q01DX001 (ip), vehicle: saline with Tween-80 103 % of control

O=C(NCCCCC(Cl)C(=O)O)c1ccccc1 (centres undefined)
inactive: [5] 98 % of control | [6] 100 % of control | [7] 100 % of control

CN(C)C(=O)/N=N/C(=O)N(C)C
inactive: [4] 104 % of control

O=C(C[n+]1cccc(C(=O)NCc2ccccc2)c1)Nc1ccccc1
inactive: endpoint: mean survival time, dose: 100.0 mg/kg/injection, schedule: Q04DX003 (ip), vehicle: saline 96 % of control

CCCC(NC(=O)C(C)Br)C(=O)O (centres undefined)
inactive: [1] 95 % of control | [2] 96 % of control | [3] 100 % of control

c1ccc2c3c([nH]c2c1)CN1CCNCC1C3 (centres undefined)
inactive: endpoint: mean survival time, dose: 6.25 mg/kg/injection, schedule: Q01DX009 (ip), vehicle: saline with Tween-80 98 % of control | endpoint: mean survival time, dose: 12.5 mg/kg/injection, schedule: Q01DX009 (ip), vehicle: saline with Tween-80 100 % of control | endpoint: mean survival time, dose: 25.0 mg/kg/injection, schedule: Q01DX009 (ip), vehicle: saline with Tween-80 100 % of control

O=C(C=C(C(F)(F)F)C(F)(F)F)c1ccccc1[N+](=O)[O-]
inactive: endpoint: mean survival time, dose: 12.5 mg/kg/injection, schedule: Q04DX003 (ip), vehicle: other 103 % of control | endpoint: mean survival time, dose: 25.0 mg/kg/injection, schedule: Q04DX003 (ip), vehicle: other 109 % of control

COc1cccc2c1C(=O)C1=C(C2=O)c2c(O)cc(CO)cc2C(O)C1O (centres undefined)
inactive: endpoint: median survival time, dose: 3.12 mg/kg/injection, schedule: Q01DX005 (ip), vehicle: other 101 % of control | endpoint: median survival time, dose: 6.25 mg/kg/injection, schedule: Q01DX005 (ip), vehicle: other 105 % of control | endpoint: median survival time, dose: 12.5 mg/kg/injection, schedule: Q01DX005 (ip), vehicle: other 103 % of control | endpoint: median survival time, dose: 25.0 mg/kg/injection, schedule: Q01DX005 (ip), vehicle: other 109 % of control | endpoint: median survival time, dose: 50.0 mg/kg/injection, schedule: Q01DX005 (ip), vehicle: other 119 % of control
